Our source for the IC50, DC50 and Dmax values is patent publication US20240261417A1, “SOS1 DEGRADING AGENT AND PREPARATION METHOD THEREFOR AND APPLICATION THEREOF” (SHANGHAI LEADINGTAC PHARMACEUTICAL CO. LTD., priority 2021, published 2024).

In one assay the target is T1, KRAS-G12C/SOS1 (Homo sapiens, UniProt Q07889).
T1 construct: purchased Cisbio 63ADKOOOCB16PEG
T1 sequence (Q07889 1-1333): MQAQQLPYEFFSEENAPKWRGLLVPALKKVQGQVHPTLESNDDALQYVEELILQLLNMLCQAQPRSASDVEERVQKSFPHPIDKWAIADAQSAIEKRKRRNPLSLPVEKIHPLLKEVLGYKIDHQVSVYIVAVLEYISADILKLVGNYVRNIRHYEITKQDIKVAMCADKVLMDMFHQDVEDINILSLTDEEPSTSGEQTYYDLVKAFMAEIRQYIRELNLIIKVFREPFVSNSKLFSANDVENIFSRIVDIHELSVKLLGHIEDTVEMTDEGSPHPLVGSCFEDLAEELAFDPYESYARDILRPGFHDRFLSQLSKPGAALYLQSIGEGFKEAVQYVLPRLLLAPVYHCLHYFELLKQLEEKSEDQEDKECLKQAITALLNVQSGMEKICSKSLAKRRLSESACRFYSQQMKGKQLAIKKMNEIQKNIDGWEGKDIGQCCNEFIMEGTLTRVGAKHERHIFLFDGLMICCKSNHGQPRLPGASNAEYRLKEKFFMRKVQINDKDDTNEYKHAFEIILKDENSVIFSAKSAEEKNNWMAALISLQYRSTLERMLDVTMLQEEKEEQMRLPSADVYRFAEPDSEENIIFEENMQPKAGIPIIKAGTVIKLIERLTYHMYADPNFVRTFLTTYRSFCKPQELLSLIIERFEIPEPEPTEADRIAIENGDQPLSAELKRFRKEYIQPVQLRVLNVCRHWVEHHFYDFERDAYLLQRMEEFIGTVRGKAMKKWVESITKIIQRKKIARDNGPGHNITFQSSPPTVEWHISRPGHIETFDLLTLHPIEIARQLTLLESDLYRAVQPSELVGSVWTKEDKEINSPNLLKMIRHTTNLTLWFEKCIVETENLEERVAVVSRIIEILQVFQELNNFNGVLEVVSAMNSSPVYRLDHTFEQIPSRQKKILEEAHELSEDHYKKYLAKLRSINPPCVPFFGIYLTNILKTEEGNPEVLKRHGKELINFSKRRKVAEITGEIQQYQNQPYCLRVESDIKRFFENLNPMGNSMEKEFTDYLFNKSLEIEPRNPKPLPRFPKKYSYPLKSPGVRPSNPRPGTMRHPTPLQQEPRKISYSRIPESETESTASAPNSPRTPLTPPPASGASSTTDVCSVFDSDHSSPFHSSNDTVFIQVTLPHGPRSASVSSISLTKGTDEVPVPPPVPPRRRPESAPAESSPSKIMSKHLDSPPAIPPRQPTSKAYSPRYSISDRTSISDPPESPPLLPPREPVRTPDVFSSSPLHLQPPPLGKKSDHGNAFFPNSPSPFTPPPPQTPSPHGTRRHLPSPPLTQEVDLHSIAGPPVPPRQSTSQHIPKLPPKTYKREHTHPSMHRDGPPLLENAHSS
Put plainly: KRAS-G12C/SOS1 binding assay (HTRF). Particulars: inhibition of KRAS-G12C/SOS1 binding. How it is done:
The following method was used to determine the extent of inhibition of KRAS-G12C/SOS1 binding by the preferred compounds of the present invention under in vitro conditions. In this method, the competitive inhibition of KRAS-G12C/SOS1 binding by the preferred compounds was assayed by the homogeneous time-resolved fluorescence (HTRF) technology using the KRAS-G12C/SOS1 binding assay kit (Cisbio, 63ADKOOOCB16PEG).
The experimental procedures were as follows (refer to the kit instructions for details): the compounds of the present invention were each firstly dissolved in DMSO at a concentration of 20 mM, and then diluted in an equal gradient with a buffer in the kit, so that the final concentrations of the test compounds in the reaction system were in a range of 10000 nM-0.04 nM, and the final concentration of DMSO was 0.5%. 2 μL of the compounds were each incubated with 4 μL of 1×Tag1-SOS1, 4 μL of 1×Tag2-KRAS-G12C (containing 10 μM guanosine triphosphate, GTP) at 25° C. for 15 min. Then 5 μL of 1× Anti-Tag1-Tb3+ and 5 μL of 1× Anti-Tag2-XL665 were added to the reaction system, and the mixture was incubated on ice for 3 h. After the incubation, the fluorescence intensity of each well was measured at the excitation wavelength of 337 nm, the fluorescence intensity of each well was read at the emission wavelengths of 620 nm and 665 nm on a microplate reader EnVision (PerkinElmer, 2105) in an HTRF mode, and the Ratio value was calculated by the formula Ratio=(665 nm/620 nm)×[…]. The inhibition rates of the compounds at each concentration were calculated by comparing the fluorescence intensity ratio with that of the control group, and then nonlinear curve fitting was performed by GraphPad Prism 8 in the logarithmic concentration-inhibition rate to obtain the IC50 values of the compounds, as shown in Table 1.
In general terms: Time-resolved FRET reads energy transfer from a long-lived donor to a nearby acceptor.

For the next assay, the target named is T2, SOS1 protein (Homo sapiens, UniProt Q07889).
T2 sequence (Q07889 1-1333): T1 sequence (Q07889 1-1333)
Put plainly: SOS1 degradation assay (Western blot), NCI-H358 cells. More on the design: The degradation of SOS1 by the compounds was investigated on KRAS G12C mutant human non-small cell lung cancer cells NCI-H358; host or cells: NCI-H358 (human cancer cell lines). The format is cell-based. The note with it: SOS1 degradation, NCI-H358 cells, 24 h, Western blot; for DC50: read-out: NCI-H358 (G12C) DC50; for Dmax: read-out: NCI-H358 (G12C) Dmax. The method in brief: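 Cells at 5×10^5 per well were treated for 24 h at 37 °C with compound at 0.03–3000 nM final. SOS1 in lysates was measured by Western blot with chemiluminescent densitometry and normalised to the control group. DC50 and Dmax came from nonlinear fits against log concentration.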
(A western blot detects proteins with antibodies after separation by electrophoresis.)

With `COc1cc2nc(C)nc(N[C@H](C)c3cc(N)cc(C(F)(F)F)c3)c2cc1[C@H]1CC[C@H](C(=O)N2CCC(CCOCC3CCN(C(=O)c4ccc(F)c(N5CCC(=O)NC5=O)c4)CC3)CC2)CC1` [Example 44, 1-(5-(4-((2-(1-((1R,4R)-4-(4-(((R)-1-(3-amino-5-(trifluoromethyl)phenyl)ethyl)amino)-7-methoxy-2-methylquinazolin-6-yl)cyclohexane-1-carbonyl)piperidin-4-yl)ethoxy)methyl)piperidine-1-carbonyl)-2-fluorophenyl)dihydropyrimidine-2,4(1H,3H)-dione], the IC50 (commonly the point on the concentration scale where inhibition reaches its midpoint) on KRAS-G12C/SOS1 was at most 15 nM. For the same compound, on SOS1 protein, the 50% degradation concentration (DC50) (in general, the concentration at which degradation of the target reaches its halfway point) is below 50 nM.

With `[2H]C1([2H])CC(OCC2CCN(C(=O)[C@H]3CC[C@H](c4cc5c(N[C@H](C)c6cc(N)cc(C(F)(F)F)c6)nc(C)nc5cc4OC)CC3)CC2)CC([2H])([2H])N1C(=O)c1ccc(Cl)c(N2CCC(=O)NC2=O)c1` [Example 45, 1-(5-(4-((1-((1R,4R)-4-(4-(((R)-1-(3-amino-5-(trifluoromethyl)phenyl)ethyl)amino)-7-methoxy-2-methylquinazolin-6-yl)cyclohexane-1-carbonyl)piperidin-4-yl)methoxy)piperidine-1-carbonyl-2,2,6,6-d4)-2-chlorophenyl)dihydropyrimidine-2,4(1H,3H)-dione], the IC50 at KRAS-G12C/SOS1 is at most 15 nM. On SOS1 protein, the DC50 was 100 to 500 nM and the Dmax – broadly, the greatest extent of degradation seen – was 50 to 80%.

Turning to `COc1cc2nc(C)nc(N[C@H](C)c3cc(-c4c(Cl)cccc4CN(C)C)cs3)c2cc1C1=CCC(C(=O)N2CCC(CCOCC3CCN(C(=O)c4ccc(Cl)c(C5CCC(=O)NC5=O)c4)CC3)CC2)CC1` (stereo partly drawn) [Example 46, 3-(2-chloro-5-(4-((2-(1-(4-(4-(((R)-1-(4-(2-chloro-6-((dimethylamino)methyl)phenyl)thien-2-yl)ethyl)amino)-7-methoxy-2-methylquinazolin-6-yl)cyclohex-3-ene-1-carbonyl)piperidin-4-yl)ethoxy)methyl)piperidine-1-carbonyl)phenyl)piperidine-2,6-dione], the half-inhibitory concentration (IC50) at KRAS-G12C/SOS1 was at most 15 nM. Moreover, at SOS1 protein, the DC50 is below 50 nM and the Dmax fell in the range of 50 to 80%.

At KRAS-G12C/SOS1, `CNCc1ccccc1-c1csc([C@@H](C)Nc2nc(C)nc3cc(OC)c([C@H]4CC[C@H](C(=O)N(C)CCCC5CCN(C(=O)c6ccc(Cl)c(N7CCC(=O)NC7=O)c6)CC5)CC4)cc23)c1` [Example 47, (1R,4R)—N-(3-(1-(4-chloro-3-(2,4-dioxotetrahydropyrimidin-1(2H)-yl)benzoyl)piperidin-4-yl)propyl)-4-(7-methoxy-2-methyl-4-(((R)-1-(4-(2-((methylamino)methyl)phenyl)thien-2-yl)ethyl)amino)quinazolin-6-yl)-N-methylcyclohexane-1-carboxamide] displayed an IC50 of at most 15 nM. Besides, on SOS1 protein, the DC50 lay in the range of 1000 to 10000 nM and the Dmax was below 30%.

As to `CNCc1ccccc1-c1csc([C@@H](C)Nc2nc(C)nc3cc(OC)c([C@H]4CC[C@H](C(=O)N(C)CCCC5CCC6(CC5)CCN(C(=O)c5ccc(Cl)c(N7CCC(=O)NC7=O)c5)CC6)CC4)cc23)c1` [Example 49, (1R,4R)—N-(3-(3-(4-chloro-3-(2,4-dioxotetrahydropyrimidin-1(2H)-yl)benzoyl)-3-azaspiro[5.5]undecan-9-yl)propyl)-4-(7-methoxy-2-methyl-4-(((R)-1-(4-(2-((methylamino)methyl)phenyl)thien-2-yl)ethyl)amino)quinazolin-6-yl)-N-methylcyclohexane-1-carboxamide], the IC50 at KRAS-G12C/SOS1 is at most 15 nM. Further, on SOS1 protein, the DC50 lay in the range of 100 to 500 nM and the Dmax lay in the range of 50 to 80%.

`CNCc1ccccc1-c1csc([C@@H](C)Nc2nc(C)nc3cc(OC)c([C@H]4CC[C@H](C(=O)N5CCN(CCC6CCC7(CC6)CCN(C(=O)c6ccc(Cl)c(N8CCC(=O)NC8=O)c6)CC7)CC5)CC4)cc23)c1` [Example 50] showed an IC50 at KRAS-G12C/SOS1 of at most 15 nM. In addition, at SOS1 protein, the DC50 is below 50 nM and the Dmax lay in the range of 80 to 100%.

`COc1cc2nc(C)nc(N[C@H](C)c3cc(N)cc(C(F)(F)F)c3)c2cc1C1=CCC(C(=O)N2CCN(CC3CCC4(CC3)CCN(C(=O)c3ccc(Cl)c(N5CCC(=O)NC5=O)c3)CC4)CC2)CC1` (stereo partly drawn) [Example 51, 1-(5-(9-((4-(4-(4-(((R)-1-(3-amino-5-(trifluoromethyl)phenyl)ethyl)amino)-7-methoxy-2-methylquinazolin-6-yl)cyclohex-3-ene-1-carbonyl)piperazin-1-yl)methyl)-3-azaspiro[5.5]undecane-3-carbonyl)-2-chlorophenyl)dihydropyrimidine-2,4(1H,3H)-dione] yielded an IC50 at KRAS-G12C/SOS1 of at most 15 nM. On SOS1 protein, the DC50 was below 50 nM and the Dmax was in the range of 80 to 100%.

`COc1cc2nc(C)nc(N[C@H](C)c3cc(-c4c(Cl)cccc4CN(C)C)cs3)c2cc1[C@H]1CC[C@H](C(=O)N2CCN(CC3CCC4(CC3)CCN(C(=O)c3ccc(C5CCC(=O)NC5=O)cc3)CC4)CC2)CC1` (stereo partly drawn) [Example 52, 3-(4-(9-((4-((1R,4R)-4-(4-(((R)-1-(4-(2-chloro-6-((dimethylamino)methyl)phenyl)thien-2-yl)ethyl)amino)-7-methoxy-2-methylquinazolin-6-yl)cyclohexane-1-carbonyl)piperazin-1-yl)methyl)-3-azaspiro[5.5]undecane-3-carbonyl)phenyl)piperidine-2,6-dione]: at KRAS-G12C/SOS1, the IC50 is at most 15 nM. At SOS1 protein, the DC50 fell in the range of 100 to 500 nM and the Dmax lay in the range of 50 to 80%.

Regarding `COc1cc2nc(C)nc(N[C@H](C)c3cc(N)cc(C(F)(F)F)c3)c2cc1C1=CCC(C(=O)N2CCN(CCOCC3CCN(C(=O)c4ccc(Cl)c(N5CCC(=O)NC5=O)c4)CC3)CC2)CC1` (stereo partly drawn) [Example 53, 1-(5-(4-((2-(4-(4-(4-(((R)-1-(3-amino-5-(trifluoromethyl)phenyl)ethyl)amino)-7-methoxy-2-methylquinazolin-6-yl)cyclohex-3-ene-1-carbonyl)piperazin-1-yl)ethoxy)methyl)piperidine-1-carbonyl)-2-chlorophenyl)dihydropyrimidine-2,4(1H,3H)-dione], the IC50 on KRAS-G12C/SOS1 was at most 15 nM. Besides, on SOS1 protein, the DC50 is below 50 nM and the Dmax lay within 50 to 80%.
